# From publication PMC4080982, “Interactions of antagonists with subtypes of inositol 1,4,5-trisphosphate (IP3) receptor” (British Journal of Pharmacology, 2014)
# Key:
# [1] = system: HEK cells; experiment: IP3-evoked Ca^2+ release from permeabilized HEK cells; assay type: cell-based; details: 5 min
# Method: (§1) A low-affinity Ca^2+ indicator trapped within the ER of permeabilized DT40 cells was used to measure IP3-evoked Ca^2+ release (Tovey et al., [2006]; Saleem et al., [2012]). Briefly, the ER was loaded with indicator by incubating cells (∼5 × 10^7 mL^−1) in the dark with Mag-fluo-4AM (20 μM) in HEPES-buffered saline (HBS) containing 0.02% (v/v) Pluronic F127 for 1 h at 22°C. HBS had the following composition: 135 mM NaCl, 5.9 mM KCl, 11.6 mM HEPES, 1.5 mM CaCl2, 11.5 mM glucose, 1.2 mM MgCl2, pH 7.3. After permeabilization of the plasma membrane with saponin (10 μg·mL^−1, 4 min, 37°C) in Ca^2+-free cytosol-like medium (CLM), permeabilized cells were washed (650× g, 2 min) and resuspended (∼10^7 mL^−1) in Mg^2+-free CLM containing carbonyl cyanide 4-(trifluoromethoxy) phenylhydrazone (FCCP, 10 μM) to inhibit mitochondria, and supplemented with CaCl2 to give a final free [Ca^2+] of 220 nM after addition of 1.5 mM MgATP. […] Addition of MgATP (1.5 mM) allowed Ca^2+ uptake by the ER, which was monitored at intervals of ∼1 s using a FlexStation-3 plate reader (MDS Analytical Devices, Berkshire, UK; Tovey et al., [2006]). […] IP3-evoked Ca^2+ release was expressed as a fraction of that released by ionomycin (1 μM; Tovey et al., [2006]). […] The affinity of each competitive antagonist (pKD) was determined from the intercept on the abscissa of the Schild plot.
# [2] = target: T1, rat IP3R3 (Rattus norvegicus, UniProt Q63269); experiment: IP3-evoked Ca^2+ release from permeabilized DT40-IP3R3 cells; assay type: cell-based; details: IP3R3
# T1 construct: different for NTs (NT2 > NT1 > > NT3) and full-length IP3Rs (IP3R3 > IP3R1 ≥ IP3R2); expressed in transfected cells
# Method: (§2) We used DT40 cells lacking endogenous IP3Rs (Sugawara et al., [1997]), but stably expressing rat IP3R1 (GenBank accession number GQ233032.1; Pantazaka and Taylor, [2011]), mouse IP3R2 (GU980658.1; Tovey et al., [2010]) or rat IP3R3 (GQ233031.1; Rahman et al., [2009]). Cells were grown in suspension in RPMI 1640 medium supplemented with 10% FBS, 1% heat-inactivated chicken serum, 2 mM glutamine and 50 μM 2-mercaptoethanol at 37°C in humidified air containing 5% CO2. Cells were used or passaged when they reached a density of ∼1.5 × 10^6 cells mL^−1.
# (§3) A low-affinity Ca^2+ indicator trapped within the ER of permeabilized DT40 cells was used to measure IP3-evoked Ca^2+ release (Tovey et al., [2006]; Saleem et al., [2012]). Briefly, the ER was loaded with indicator by incubating cells (∼5 × 10^7 mL^−1) in the dark with Mag-fluo-4AM (20 μM) in HEPES-buffered saline (HBS) containing 0.02% (v/v) Pluronic F127 for 1 h at 22°C. HBS had the following composition: 135 mM NaCl, 5.9 mM KCl, 11.6 mM HEPES, 1.5 mM CaCl2, 11.5 mM glucose, 1.2 mM MgCl2, pH 7.3. After permeabilization of the plasma membrane with saponin (10 μg·mL^−1, 4 min, 37°C) in Ca^2+-free cytosol-like medium (CLM), permeabilized cells were washed (650× g, 2 min) and resuspended (∼10^7 mL^−1) in Mg^2+-free CLM containing carbonyl cyanide 4-(trifluoromethoxy) phenylhydrazone (FCCP, 10 μM) to inhibit mitochondria, and supplemented with CaCl2 to give a final free [Ca^2+] of 220 nM after addition of 1.5 mM MgATP. Ca^2+-free CLM had the following composition: 2 mM NaCl, 140 mM KCl, 1 mM EGTA, 20 mM PIPES, 2 mM MgCl2, pH 7.0. Permeabilized cells were then distributed into 96-well plates (50 μL, 5 × 10^5 cells per well), centrifuged (300× g, 2 min) and used for experiments at 20°C. Addition of MgATP (1.5 mM) allowed Ca^2+ uptake by the ER, which was monitored at intervals of ∼1 s using a FlexStation-3 plate reader (MDS Analytical Devices, Berkshire, UK; Tovey et al., [2006]). After 2 min, when the ER had loaded to steady-state with Ca^2+, IP3 was added with CPA (10 μM) to inhibit further Ca^2+ uptake. IP3-evoked Ca^2+ release was expressed as a fraction of that released by ionomycin (1 μM; Tovey et al., [2006]). Similar methods were used to measure IP3-evoked Ca^2+ release from intact or permeabilized HEK cells (Tovey et al., [2008]). The timings of antagonist additions are described in the figure legends. The affinity of each competitive antagonist (pKD) was determined from the intercept on the abscissa of the Schild plot.
# (§4) Concentration–effect relationships were fitted to Hill equations using Prism (version 5.0, GraphPad, San Diego, CA, USA), from which Hill coefficients (h), the fraction of the intracellular Ca^2+ stores released by a maximally effective concentrations of IP3, and pEC50 values were calculated.
# [3] = target: T2, rat IP3R1 (Rattus norvegicus, UniProt P29994); experiment: IP3-evoked Ca^2+ release from permeabilized DT40-IP3R1 cells; assay type: cell-based; details: IP3R1
# T2 construct: different for NTs (NT2 > NT1 > > NT3) and full-length IP3Rs (IP3R3 > IP3R1 ≥ IP3R2); expressed in transfected cells
# Method: as §2, §3, §4
# [4] = system: permeabilized DT40-IP3R1-3 cells; experiment: Ca^2+ uptake and Ca^2+ content of the intracellular stores of permeabilized DT40 cells; assay type: cell-based; details: permeabilized DT40 cells, 5 min pre-incubation
# Method: Briefly, the ER was loaded with indicator by incubating cells (∼5 × 10^7 mL^−1) in the dark with Mag-fluo-4AM (20 μM) in HEPES-buffered saline (HBS) containing 0.02% (v/v) Pluronic F127 for 1 h at 22°C. […] Ca^2+-free CLM had the following composition: 2 mM NaCl, 140 mM KCl, 1 mM EGTA, 20 mM PIPES, 2 mM MgCl2, pH 7.0. Permeabilized cells were then distributed into 96-well plates (50 μL, 5 × 10^5 cells per well), centrifuged (300× g, 2 min) and used for experiments at 20°C. […] After 2 min, when the ER had loaded to steady-state with Ca^2+, IP3 was added with CPA (10 μM) to inhibit further Ca^2+ uptake. […] The timings of antagonist additions are described in the figure legends. The affinity of each competitive antagonist (pKD) was determined from the intercept on the abscissa of the Schild plot.
# [5] = system: HEK cells; experiment: Carbachol-evoked Ca^2+ signals in intact HEK cells; assay type: cell-based; details: intact HEK cells; Xestospongin 10 μM for 30 min
# Method: as §3
# [6] = system: HEK cells; parameters: method as in Kurian et al., [2009]; details: Xestospongin C 10 μM for 30 min in Ca^2+-free medium, ref Kurian et al., [2009]; cited from earlier work
# [7] = target: T3, mouse IP3R2 (Mus musculus, UniProt Q9Z329); experiment: IP3-evoked Ca^2+ release from permeabilized DT40-IP3R2 cells; assay type: cell-based; details: IP3R2
# T3 construct: different for NTs (NT2 > NT1 > > NT3) and full-length IP3Rs (IP3R3 > IP3R1 ≥ IP3R2); expressed in transfected cells
# Method: as §2, §3, §4
# [8] = system: cerebellar microsomes; parameters: method as in Gafni et al., [1997]; details: ref Gafni et al., [1997], read-out: IC50, inhibition of IP3-evoked Ca^2+ release; cited from earlier work
# [9] = system: HEK cells; experiment: Steady-state Ca^2+ content of the intracellular stores of permeabilized HEK cells; assay type: cell-based; details: 5 min
# Method: as §1
# [10] = 5 µM, 5 min, purified (Gafni et al., 1997)
# [11] = 20 µM, 7 min, purified (Gafni et al., 1997)
# [12] = 20 µM, 12 min, purified (Gafni et al., 1997)
# [13] = Xestospongin 20 μM, pooled 7 and 12 min
# [14] = Xestospongin C 5–20 μM from either source, 5–12 min before IP3
# [15] = Xestospongin 20 μM, pooled from 7 and 12 min pre-incubation
# [16] = 10 µM, 5 min, purified (Gafni et al., 1997)
# [17] = 10 µM, 5 min, source Calbiochem
# T2 sequence (P29994 1-2735 isoform P29994-2): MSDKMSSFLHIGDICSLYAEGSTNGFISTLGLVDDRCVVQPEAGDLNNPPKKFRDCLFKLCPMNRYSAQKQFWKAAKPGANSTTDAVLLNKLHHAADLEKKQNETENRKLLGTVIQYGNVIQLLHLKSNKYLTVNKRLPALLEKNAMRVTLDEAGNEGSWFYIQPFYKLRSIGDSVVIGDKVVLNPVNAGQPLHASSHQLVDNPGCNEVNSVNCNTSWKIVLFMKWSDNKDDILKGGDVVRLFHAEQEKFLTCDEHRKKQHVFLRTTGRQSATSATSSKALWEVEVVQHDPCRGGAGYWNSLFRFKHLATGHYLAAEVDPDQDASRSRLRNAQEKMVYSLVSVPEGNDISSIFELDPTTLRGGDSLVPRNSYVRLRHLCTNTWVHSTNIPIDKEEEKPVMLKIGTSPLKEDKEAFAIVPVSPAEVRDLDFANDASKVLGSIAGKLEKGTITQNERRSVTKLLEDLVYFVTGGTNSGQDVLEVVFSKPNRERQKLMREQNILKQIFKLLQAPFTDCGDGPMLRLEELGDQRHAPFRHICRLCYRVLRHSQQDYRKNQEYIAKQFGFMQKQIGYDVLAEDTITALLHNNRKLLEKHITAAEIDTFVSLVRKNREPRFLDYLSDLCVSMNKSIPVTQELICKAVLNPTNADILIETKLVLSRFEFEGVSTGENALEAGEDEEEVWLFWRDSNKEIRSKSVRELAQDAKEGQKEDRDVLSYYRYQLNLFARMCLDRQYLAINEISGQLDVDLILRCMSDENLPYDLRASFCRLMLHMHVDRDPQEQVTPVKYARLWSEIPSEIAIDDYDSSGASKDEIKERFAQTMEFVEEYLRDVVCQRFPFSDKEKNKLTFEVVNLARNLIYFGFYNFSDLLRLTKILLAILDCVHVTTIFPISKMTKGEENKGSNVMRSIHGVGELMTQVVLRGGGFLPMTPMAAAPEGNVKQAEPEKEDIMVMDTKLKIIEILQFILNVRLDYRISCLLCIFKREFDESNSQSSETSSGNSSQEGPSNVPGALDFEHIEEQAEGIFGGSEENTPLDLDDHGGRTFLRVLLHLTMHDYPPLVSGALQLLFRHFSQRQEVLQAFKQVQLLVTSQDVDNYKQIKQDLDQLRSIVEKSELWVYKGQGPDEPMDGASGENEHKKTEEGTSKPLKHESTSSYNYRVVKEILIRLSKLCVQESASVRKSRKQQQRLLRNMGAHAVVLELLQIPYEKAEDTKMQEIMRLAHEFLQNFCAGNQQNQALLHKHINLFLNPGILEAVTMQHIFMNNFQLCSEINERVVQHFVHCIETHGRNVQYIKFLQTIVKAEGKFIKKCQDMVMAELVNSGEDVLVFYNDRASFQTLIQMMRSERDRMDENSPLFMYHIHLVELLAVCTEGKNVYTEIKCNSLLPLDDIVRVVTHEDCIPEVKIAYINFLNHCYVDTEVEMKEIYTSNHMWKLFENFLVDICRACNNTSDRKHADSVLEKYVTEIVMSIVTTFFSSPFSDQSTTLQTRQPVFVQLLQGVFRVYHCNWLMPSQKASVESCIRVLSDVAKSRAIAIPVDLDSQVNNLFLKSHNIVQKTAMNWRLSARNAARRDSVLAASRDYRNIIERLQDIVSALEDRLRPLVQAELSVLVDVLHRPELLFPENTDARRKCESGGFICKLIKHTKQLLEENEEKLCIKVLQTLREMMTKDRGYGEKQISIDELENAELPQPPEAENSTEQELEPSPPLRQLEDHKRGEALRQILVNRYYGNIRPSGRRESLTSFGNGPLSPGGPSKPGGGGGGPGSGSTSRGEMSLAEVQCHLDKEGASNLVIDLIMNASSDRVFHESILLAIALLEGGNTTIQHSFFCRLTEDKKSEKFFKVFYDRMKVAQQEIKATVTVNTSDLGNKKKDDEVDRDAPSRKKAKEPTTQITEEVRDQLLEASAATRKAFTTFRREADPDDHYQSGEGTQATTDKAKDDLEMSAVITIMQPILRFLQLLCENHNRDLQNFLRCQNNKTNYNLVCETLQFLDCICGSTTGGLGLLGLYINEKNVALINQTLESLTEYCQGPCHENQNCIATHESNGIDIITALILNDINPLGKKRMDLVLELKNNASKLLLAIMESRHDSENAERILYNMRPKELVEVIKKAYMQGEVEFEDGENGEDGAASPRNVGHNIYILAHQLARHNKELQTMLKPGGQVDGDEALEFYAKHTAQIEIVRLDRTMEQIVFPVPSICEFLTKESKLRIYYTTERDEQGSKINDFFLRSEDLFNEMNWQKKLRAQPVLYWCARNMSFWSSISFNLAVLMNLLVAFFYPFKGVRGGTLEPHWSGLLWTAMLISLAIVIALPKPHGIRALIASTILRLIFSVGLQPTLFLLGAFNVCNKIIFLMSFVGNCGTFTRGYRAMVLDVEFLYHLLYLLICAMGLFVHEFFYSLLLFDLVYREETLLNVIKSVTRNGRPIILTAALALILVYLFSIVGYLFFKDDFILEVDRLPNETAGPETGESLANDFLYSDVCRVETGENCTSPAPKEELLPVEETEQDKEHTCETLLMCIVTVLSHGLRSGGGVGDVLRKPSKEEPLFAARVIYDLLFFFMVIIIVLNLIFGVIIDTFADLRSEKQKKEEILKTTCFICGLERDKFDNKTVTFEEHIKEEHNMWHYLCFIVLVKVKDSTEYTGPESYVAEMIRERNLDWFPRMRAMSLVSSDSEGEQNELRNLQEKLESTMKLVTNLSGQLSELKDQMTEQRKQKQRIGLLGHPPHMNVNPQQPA
structure (smiles),measurement,setting,value
C1CCC[C@H]2CCCN3CC[C@@H](CCCCCC[C@@H]4CCCN5CC[C@@H](CC1)O[C@@H]45)O[C@@H]23 [Xestospongin C],effect on Ca^2+ release evoked by IP3,[1]; Xestospongin C 5 μM,no effect
same,ΔMax,[2]; [10],3 ± 14%
same,ΔpEC50,[2]; [10],0.02 ± 0.09 M⁻¹
same,ΔMax,"[2]; 5 µM, 5 min, source Calbiochem",15 ± 7%
same,ΔpEC50,"[2]; 5 µM, 5 min, source Calbiochem",-0.04 ± 0.11 M⁻¹
same,ΔMax,[2]; [11],1 ± 3%
same,ΔpEC50,[2]; [11],0.15 ± 0.02 M⁻¹
same,ΔMax,[2]; [12],2 ± 2%
same,ΔpEC50,[2]; [12],0.10 ± 0.05 M⁻¹
same,ΔMax,[2]; [13],1 ± 2%
same,ΔpEC50,[2]; [13],0.12 ± 0.03 M
same,effect on IP3-evoked Ca^2+ release,[2]; [14],no significant effect
same,ΔMax,[3]; [10],2 ± 2%
same,ΔpEC50,"[3]; 5 µM, 5 min, purified as described (Gafni et al., 1997)",-0.12 ± 0.12 M⁻¹
same,ΔMax,"[3]; 5 µM, 5 min, source Calbiochem",2 ± 1%
same,ΔpEC50,"[3]; 5 µM, 5 min, source Calbiochem",0.09 ± 0.07 M⁻¹
same,ΔMax,[3]; [11],9 ± 3 %
same,ΔpEC50,[3]; [11],0.08 ± 0.07 M⁻¹
same,ΔMax,[3]; [12],4 ± 3%
same,ΔpEC50,[3]; [12],0.33 ± 0.18 M⁻¹
same,ΔMax,[3]; [13],6 ± 2 %
same,ΔpEC50,[3]; [15],0.21 ± 0.10 M
same,effect on IP3-evoked Ca^2+ release,[3]; [14],no significant effect
same,effect on Ca^2+ content of the stores,[4]; 5 μM purified Xestospongin C,no significant effect
same,effect on Ca^2+ signals evoked by carbachol,[5],no significant effect
same,effect on carbachol-evoked Ca^2+ signals,[6],"substantial, though incomplete, inhibition"
same,ΔMax,[7]; [10],0 ± 4%
same,ΔMax,"[7]; 5 µM, 5 min, source Calbiochem",5 ± 6%
same,ΔMax,[7]; [11],2 ± 2%
same,ΔMax,[7]; [12],1 ± 2%
same,ΔMax,[7]; [13],1 ± 1%
same,effect on IP3-evoked Ca^2+ release,[7]; [14],no significant effect
same,IC50,[8],0.358 µM
same,effect on Ca^2+ content of the intracellular stores,[9]; Xestospongin C 5 μM,no effect
O[C@@]12CCCCCC[C@H]3CCN4CCC[C@H](CCCCCC[C@H]5CCN(CCC1)[C@@H]2O5)[C@H]4O3 [Xestospongin D],effect on Ca^2+ release evoked by IP3,[1]; Xestospongin D 10 μM,no effect
same,ΔMax,[2]; [16],8 ± 8%
same,ΔpEC50,[2]; [16],0.16 ± 0.26 M⁻¹
same,ΔMax,[2]; [17],12 ± 1 %
same,ΔpEC50,[2]; [17],0.03 ± 0.04 M⁻¹
same,ΔMax,[2]; [11],4 ± 2%
same,ΔpEC50,[2]; [11],0.39 ± 0.10 M⁻¹
same,ΔMax,[2]; [12],-1 ± 0%
same,ΔpEC50,[2]; [12],0.03 ± 0.08 M⁻¹
same,ΔMax,[2]; [13],2 ± 2%
same,ΔpEC50,[2]; [13],0.21 ± 0.10 M
same,ΔMax,[3]; [16],15 ± 4 %
same,ΔpEC50,[3]; [16],-0.02 ± 0.10 M⁻¹
same,ΔMax,[3]; [17],17 ± 6 %
same,ΔpEC50,[3]; [17],0.28 ± 0.13 M⁻¹
same,ΔMax,[3]; [11],18 ± 5 %
same,ΔpEC50,[3]; [11],0.37 ± 0.11 M⁻¹
same,ΔMax,[3]; [12],18 ± 1 %
same,ΔpEC50,[3]; [12],0.14 ± 0.12 M⁻¹
same,ΔMax,[3]; [13],18 ± 2 %
same,ΔpEC50,[3]; [15],0.26 ± 0.09 M
same,effect on IP3-evoked Ca^2+ release,"[3]; Xestospongin D 10–20 μM from either source, 5–12 min","modest, but statistically significant"
same,effect on Ca^2+ content of the intracellular stores,[4]; 10 μM purified Xestospongin D,no effect
same,effect on Ca^2+ signals evoked by carbachol,[5],no significant effect
same,ΔMax,[7]; [16],2 ± 3%
same,ΔpEC50,[7]; [16],-0.07 ± 0.07
same,ΔMax,[7]; [17],2 ± 4%
same,ΔpEC50,[7]; [17],0.25 ± 0.22
same,ΔMax,[7]; [11],5 ± 2%
same,ΔpEC50,[7]; [11],-0.06 ± 0.04
same,ΔMax,[7]; [12],11 ± 5%
same,ΔpEC50,[7]; [12],-0.23 ± 0.06
same,ΔMax,[7]; [13],8 ± 3 %
same,ΔpEC50,[7]; [13],−0.15 ± 0.05
same,ΔpEC50,"[7]; Xestospongin 20 μM, pooled 7 and 12 min, listed as XeD",-0.15 ± 0.05
same,effect on Ca^2+ content of the intracellular stores,[9]; Xestospongin D 10 μM,no effect
